Entries after “also recorded” stand apart in the source; their conditions may differ.
Experiments:
[1] = test system: BV2 cells; experiment: Phagocytosis of FITC-labeled amyloid beta (1-42), BV2 cells (flow cytometry, confocal); format: cell-based; conditions: for beta amyloid phagocytosis: BV2 cells, 16 hours, 3.75 μM, then 1 hour beta amyloid-FITC
Procedure: It was investigated if the enhanced phagocytic activity of microglia towards lysotracker and dead neurons extended to the enhanced phagocytosis of amyloid proteins. Flow cytometric assays were conducted to detect and compare the ability of SHIP inhibitor compounds to enhance the phagocytosis of amyloid beta 1-42 coupled to FITC. These assays provided a means to compare the ability of SHIP inhibitor compounds to promote a crucial effector function of microglia in the brain that is highly relevant for the pathology of Alzheimer's disease.
Cells were then washed twice and analyzed by flow cytometry for the presence of FITC-labeled amyloid beta (1-42). […] FIG. 7F-H show the confocal images of fixed BV2 cells incubated with beta amyloid with and without K161.

[2] = test system: SIM-A9 cells; experiment: CCK-8 assay of cell growth, SIM-A9 cells; format: cell-based; conditions: 48 hr
Procedure: (§1) The ability of 3AC, K118 and K149 to promote the proliferation of BV2 and SIM-A9 microglial cells was tested in vitro. Cells were counted with a cell counting kit-8 (e.g. CCK-8) which is a sensitive colorimetric assays for the determination of cell viability in cell proliferation and cytotoxicity assays. It uses the highly water-soluble tetrazolium salt, WST-8, which is reduced by dehydrogenase activities in cells to give a yellow-color formazan dye, which is soluble in the tissue culture media. The amount of the formazan dye, generated by the activities of dehydrogenases in cells, is directly proportional to the number of living cells.
(§2) A CCK-8 assay was performed for analysis of cell growth of BV2 cells (FIG. 4A), and SIM-A9 cells (FIG. 4B) vs. their respective vehicle controls (100%) at 48 hr. Each point represents the mean of the 6 replicates for each dose.

[3] = test system: p-mTOR (Ser2448) and p-S6 in BV2 cells; experiment: Western blotting and intracellular flow of signaling kinases, BV2 cells; format: cell-based; conditions: for mTOR phosphorylation at Ser2448: microglia (BV2), Western blotting / icFlow
Procedure: (§3) Using both Western blotting and intracellular flow (icFlow) assays activation of key signaling kinases that are known to control proliferation, survival and effector functions in immune cells were examined. This included probing for phosphorylated forms of Akt, ERK, mTOR (p-mTOR) and S6 (p-S6). BV2 cells were incubated with a series of pan-SHIP inhibitors. […] In FIG. 8E, the effect of 3AC on BV2 cells is depicted, as assessed by Western Blotting, with actin and HSP90 as loading controls.

[4] = test system: BV2 cells; experiment: CCK-8 assay of cell growth, BV2 cells; format: cell-based; conditions: 48 hr
Procedure: as §1, §2

[5] = test system: BV2 cells; experiment: LysoTracker Red staining of lysosomal/phagosomal compartment, BV2 cells (flow cytometry, confocal); format: cell-based; conditions: for LysoTrackerRed MFI (phagosomal compartment size): BV2 cells treated 16 hr, 3.75 μM and 5 μM, vs diluent control; for phagosomal compartment size (LysoTrackerRed staining): BV2 cells treated 20 hr, 50 nM LysoTrackerRed
Procedure: Flow cytometric assays were conducted to detect and compare the ability of SHIP inhibitor compounds to increase the phagocytic capacity of microglia as determined by LysoTracker Red staining which is preferentially retained and fluoresces in the acidic environment of the lysosomal/phagosomal subcellular compartment. BV2 cells were treated for 20 hr with 3AC, K118 or K149 at the indicated doses vs. their respective diluent controls, washed twice and incubated with 50 nM LysoTrackerRed and then analyzed by flow cytometry (FIG. 5). Histograms of the LysoTrackerRed staining for each compound at the indicated dose or their diluent control (0 μM) are shown. […] K118 repeated towards BV2 cells (FIG. 5D, 5E) and primary microglial cells (FIG. 5F, 5G). BV2 cells were treated for 16 hr with the indicated K118 concentration and incubated with LysoTrackerRed (50 nM), washed twice and then analyzed by flow cytometry and compared to similarly treated vs. their diluent control primary microglia (0.5% DMSO). Histograms of LysoTrackerRed staining for K118 (Red-3.75 μM, Green-5 μM) or diluent control (Blue, shaded) are shown. In FIG. 5E, line and whisker plots are shown for the mean fluorescence intensity (MFI) of LysoTrackerRed staining at the indicated concentrations of K118.
Pan-SHIP1/2 inhibition increased microglial lysosomal/phagosomal compartment.

[6] = test system: BV2 cells; experiment: Phagocytosis of PI-stained dead neurons, BV2 cells (flow cytometry); format: cell-based; conditions: for phagocytosis of dead neurons, selective inhibitors alone or combined: BV2 cells (FIG. 6C)
Source text: (§4) Next it was investigated if microglial can phagocytose dead neurons, and to what extent the phagocytosis of dead neurons is enhanced by SHIP inhibitors. Dead neurons were stained with propidium iodide. Propidium iodide is a fluorescent compound that binds to a cell's DNA and can be used to stain dead cells. The phagocytosis of propidium iodide (PI)-stained dead neurons by microglia was investigated by flow cytometry (FIG. 6). […] (FIG. 6C). […] Pan-SHIP inhibition increased phagocytic activity of microglial cells towards dead neurons.

[7] = test system: SIM-A9 cells; experiment: Phagocytosis of PI-stained dead neurons, SIM-A9 cells (flow cytometry); format: cell-based; conditions: Torin with K161
Source text: as §4

[8] = test system: primary microglia; experiment: Phagocytosis of PI-stained dead neurons, primary microglia (flow cytometry); format: cell-based, mouse
Source text: as §4

[9] = test system: CD11b+CD45low cell population (microglial cells) of the cerebral hemispheres; experiment: K161-treated mice: phagocytic activity of brain cell populations; format: in vivo
Procedure: In a subsequent experiment, mice were treated twice a week for two weeks with K161. A single cell suspension of the cerebral hemispheres was prepared from K161 (10 mg/kg) and vehicle (H20)-treated mice (n=10/group). Mice were treated twice a week for two weeks, the brains harvested by flow cytometry (FIG. 12A). Box & whisker plots of frequency of single population gated on live cells singlets for markers CD11b, CD45 and ACSA2 (FIG. 12B). The ability of the various cell types to phagocytose dead neurons, beta amyloid and LysoTracker in the absence or presence of K61 are shown in FIG. 12I to 12K. A single cell suspension of the cerebral hemispheres was prepared from K161 (10 mg/kg) and vehicle (H2O)-treated mice (n=10/group). Mice were treated twice a week for two weeks, the brains harvested by flow cytometry. Box & whisker plots of dead neuron (FIG. 12I), beta amyloid (FIG. 12J) and lysotracker assay (FIG. 12K) are shown on a single brain population gated on live cells, singlets and surface markers CD11b, CD45 and ACSA2.
Therefore, SHIP inhibitors, and particularly those that inhibit both SHIP1 and SHIP2, or selectively SHIP2 (e.g., AS1949490—available from commercial suppliers such as Sigma Aldrich and Tocris), can increase microglial phagocytic capacity to remove dead neurons from the CNS.

[10] = Serum levels after single dose IP or oral gavage; format: in vivo, mice
Procedure: To assess oral bioavailability, K118 and K161 were administered in a single dose of 10 mg/kg either by IP or by oral gavage, and levels of each were measured in serum (FIG. 14).

[11] = Detection of K161 in brain tissue by mass spectrometry after single dosing; format: in vivo; conditions: mice; for detection in brain tissue: 48 hr or 96 hr after administration, mass spectrometry
Procedure: Tissues were harvested 48 hr or 96 hr after administration, and K161 was detected by mass spectrometry and quantitated against a known concentration of K161 spiked into either serum or brain tissue homogenate (FIG. 13A). The calibration curves for K161 are shown in FIGS. 13B and 13C, with the added experimental data points in FIG. 13D. The concentrations of K161 in the brain tissue samples were calculated from the linear characteristics of the standard curve FIG. 13E.

[12] = test system: primary microglia; experiment: Phagocytosis of FITC-labeled amyloid beta, primary microglia (flow cytometry); format: cell-based, mouse; conditions: 16 hours, 1.25 μM, then 1 hour beta amyloid-FITC
[13] = test system: AKT, p-mTOR, p-S6 in primary microglia cells; experiment: Expression of signaling kinases, primary microglia; format: cell-based, mouse
Procedure: as §3

[14] = 10 mg/kg twice a week for two weeks, vs vehicle

For `Cc1c(CCN)c2ccccc2n1Cc1ccccc1Cl.Cl`, the melting point was 161 to 169 °C.
Work on `CC[C@H]1CC[C@H]2[C@@H]3C[C@@H](O)C4C[C@H](N)CC[C@]4(C)[C@H]3CC[C@]12C` (stereo partly shown) yielded a melting point of 193 to 195 °C.
With `CSc1ccc2c(c1)c(CCN)c(C)n2Cc1ccc(Cl)cc1Cl` [K149] the beta amyloid phagocytosis [1] was “Significant increases in beta amyloid phagocytosis; also recorded: significantly increased”, the “cell growth (proliferation) vs. vehicle control (100%)” value [2] was “an effect on proliferation was observed” and the “mTOR phosphorylation at Ser2448” value [3] was “increase mTOR phosphorylation at Ser2448”. The “cell growth vs. vehicle control (100%)” value [4] was “showed effects at 2.5, 3.75 and 5 μM concentrations”, the “LysoTrackerRed MFI (phagosomal compartment size)” value [5] was “statistically significant increase in the phagosomal compartment size” and the “phagosomal compartment size (LysoTrackerRed staining)” value [5] was “robust increases”.
In the case of Torin, the “effect on K161-enhanced phagocytosis of dead neurons” value (“effect on K161-enhanced phagocytosis” for short) ([6]; BV2 cells, Torin with K161) is reported as “did not abolish the increase in phagocytosis of dead neurons by K161”, the “effect on K161-enhanced phagocytosis” value [7] is reported as “did not abolish the increase in phagocytosis of dead neurons by K161” and the “effect on K161-enhanced phagocytosis” value ([8]; primary microglial cells, Torin with K161) is reported as “did not abolish the increase in phagocytosis of dead neurons by K161”.
In the case of `CC(C)CCC[C@@H](C)[C@H]1CC[C@H]2[C@@H]3CCC4C[C@H](N)CC[C@]4(C)[C@H]3CC[C@]12C` (stereo partly shown) [3AC], the “phagocytosis of dead neurons, selective inhibitors alone or combined” value [6] is reported as “not either of those inhibitors alone, increased phagocytosis”, the “mTOR phosphorylation at Ser2448” value [3] is reported as “increase mTOR phosphorylation at Ser2448” and the “LysoTrackerRed MFI (phagosomal compartment size)” value [5] is reported as “statistically significant increase in the phagosomal compartment size”. For the same molecule, the “phagosomal compartment size (LysoTrackerRed staining)” value [5] was “only a modest increase”.
In the case of `C[C@H](NC(=O)c1sccc1OCc1ccc(Cl)cc1)c1ccccc1` [AS1949490], the “phagocytosis of dead neurons, selective inhibitors alone or combined” value [6] is reported as “not either of those inhibitors alone, increased phagocytosis”.
In the case of `C[C@@]12CCC[C@H]1C1CC[C@H]3C[C@H](N)[C@H](N)C[C@]3(C)[C@H]1CC2.Cl.Cl` (stereo in doubt) [K161, (2R,3S,5S,8R,9S,10S,13S,14S)-10,13-dimethylhexadecahydro-1H-cyclopenta[a]phenanthrene-2,3-diaminium Chloride], the “ability to phagocytose beta amyloid, CD11b+CD45low cells” value [9, 14] is reported as “increased ability to phagocytose dead neurons and beta amyloid”, the “ability to phagocytose dead neurons, CD11b+CD45low cells” value [9, 14] is reported as “increased ability to phagocytose dead neurons and beta amyloid” and the “size of the phagosomal compartment in subsets of microglial cells in the brain” value ([9]; intraperitoneal injection twice a week for two weeks) is reported as “increased the size of the phagosomal compartment”. The beta amyloid phagocytosis [1] was “Significant increases in beta amyloid phagocytosis; also recorded: significantly increased”, the “phagosomal component, confocal images” value ([1]; fixed BV2 cells incubated with beta amyloid) was “the phagosomal component is increased” and the “decay in vivo, compared” value ([10]; mouse, in vivo, 10 mg/kg) was “decay more rapidly in vivo than K118”. The oral bioavailability ([10]; single dose 10 mg/kg IP or oral gavage, levels in serum) was “have oral bioavailability”, the “blood brain barrier penetration” value ([11]; 10 mg/kg IP or oral gavage) was “can penetrate the blood brain barrier” and the “detection in brain tissue” value ([11]; 10 mg/kg IP) was “detectable in the brain tissue”. For the same molecule, the “detection in brain tissue” value ([11]; 10 mg/kg oral gavage) was “detectable in the brain tissue”, the beta amyloid phagocytosis [12] was “Significant increases in beta amyloid phagocytosis” and the p-S6 expression ([3]; BV2 cells) was “increase in p-S6 expression”. For the same molecule, the “p-mTOR (Ser2448) expression, mean fluorescence intensity” value ([3]; BV2 cells, 16 hr, intracellular flow) was “significantly increased p-MTOR expression”, the “mTOR phosphorylation at Ser2448” value [3] was “increase mTOR phosphorylation at Ser2448” and the “phagocytic activity towards dead neurons” value ([8]; primary microglia, 16 hr, 1.25 μM) was “enhanced the phagocytic activity”. The “activation of AKT” value [13] was “activated AKT”, the “activation of p-S6” value [13] was “not p-mTOR or p-S6” and the “activation of p-mTOR” value [13] was “not p-mTOR or p-S6”.
